This is an account of results in US7491707B1, “Synthetic lipid-a-analogs and uses thereof” (Biomira, Inc., priority 1999, dated 2009).

One assay relates to T-cell. As to the kind of experiment: T-cell proliferation (3H thymidine incorporation) of lymph node lymphocytes from mice immunized with MUC1-based liposomal vaccine adjuvanted with Lipid-A analog. As to conditions: for T-cell-Proliferation (CPM): s.c. liposomal vaccine 40 μg BP1-148 + 20 μg Lipid-A analog per dose, nine days after injection, boosting antigen BP1-151; for T-cell blastogenesis: in words, liposomal vaccine formulations in mice, FIG. 31-FIG. 33. The format is in vivo, C57-Black mice. Here is the method:
(§1) Typically, the liposomal formulation was composed of 400 μg of MUC1-based lipopeptide BP1-148, H2N-[…](Pal)G-OH, 200 μg of Lipid-A analog, 6.94 mg of cholesterol, 1.46 mg of dimyristoyl phosphatidylglycerol ([…]) and 11.62 mg of dipalmitoyl phosphatidylcholine (DPPC) per 1 ml of saline (0.9% NaCl solution).
(§2) The liposomal constructs were formulated by first dissolving the phospholipids, cholesterol and Lipid A analog in tert-butanol at about 53° C. Lipopeptide and water (5%, v/v) were then added to the tert-butanol solution. The resulting clear 95% tert-butanol solution was injected into about 4 volumes of rapidly stirred water at about 50° C., using a glass syringe with an 18-gauge needle. The small unilamellar vesicles (SUV) formed in this process were cooled, sterilized by filtration through a 0.22 μm membrane filter, filled into vials and lyophilized. The dry powder was re-hydrated with sterile saline before injection, resulting in the formation of multilamellar large vesicles (MLV). The liposomes formed are used to immunize mice.
(§3) Groups of C57-Black mice were immunized subcutaneously with the liposomal vaccine containing 40 μg of MUC1-based lipopeptide BP1-148 (FIG. 34), which has the peptide sequence of H2N-[…](Pal) G-OH, and 20 μg of Lipid-A analog per dose. Nine days after vaccine injection mice were sacrificed and lymphocytes were taken from the draining lymph nodes (local response) or from the spleens (systemic response) to determine the immune response in each group. The lymphocytes taken from immunized mice were incubated in in vitro cultures in the presence of MUC1-based boosting antigen BP1-151, which has the peptide sequence H2N-[…]-OH.
T-cell proliferation was evaluated using a standard ^3H thymidine incorporation assay. Briefly, nylon wool passed inguinal lymph node lymphocytes from each mouse were added to a culture containing 106 native mitomycin C treated syngeneic splenocytes, which serves as antigen presenting cells (APCs). To each well 20 μg of MUC1-based boosting peptide BP1-151, H2N-[…]-OH (single letter amino acid code, Table 8), was added for positive control; and cultures containing no antigen or peptide BP1-72, which has the peptide sequence H2N-[…]-OH, were used as negative control. The culture was incubated for 72 h in a total volume of 250 μl well, followed by adding 1 μCi of ^3H-thymidine in a volume of 50 μl. The plates were incubated for an additional 18-20 h. Cells were harvested and [^3H]dTh incorporation was measured by liquid scintillation counter. T-cell proliferation results corresponding to various liposomal vaccines adjuvanted, with different Lipid-A analogs are summarized in Tables 1-Table 3 and FIG. 31-FIG. 33.
(Incorporation of labelled thymidine or its analogues reports DNA synthesis.)

Another assay concerns Interferon-gamma (IFN-γ). As to the kind of experiment: Interferon-gamma (IFN-γ) production in cell culture supernatants by ELISA, lymphocytes of mice immunized with adjuvanted MUC1 liposomal vaccine. Format: in vivo, C57-Black mice. Particulars: for Interferon-gamma (IFN-γ, pg/ml): s.c. liposomal vaccine 40 μg BP1-148 + 20 μg Lipid-A analog per dose, nine days after injection; for interferon-gamma production: in words, liposomal vaccine formulations in mice, FIG. 31-FIG. 33. As for the experimental part: as §1, §2, §3
Interferon-gamma (IFN-γ) levels were determined in the cell culture supernatants using enzyme-linked immunoabsorbent assay (ELISA). 96-Well plates were coated with 50 μl of catcher Mabs in 50 μl of R4.6AZ at 37° C. for 30 min. The plates were then washed and incubated with test samples for 45 min. After two washes the second biotinylated antibody, XMG1.2 was added. After washing, peroxidase-conjugated streptavidin was added and incubated again for 30 min. Finally, 100 μl of horseradish peroxidase (HRPO) substrate solution was added. The optical density was measured with a Thermomax ELISA reader at 405 nm wavelength in kinetic mode for 10 min. The interferon-gamma (IFN-γ) levels corresponding to various Lipid-A analogs are shown in Table 1-Table 3 and FIG. 31-FIG. 33.
(In general: An ELISA detects its analyte on a solid surface through an enzyme-linked reagent.)

Assay [1] deals with immune response to MUC1-based lipopeptide BP1-148. As to the kind of experiment: Adjuvanticity of Lipid-A analogs in liposomal vaccine with MUC1 lipopeptide BP1-148 (T-cell blastogenesis and IFN-γ production). The format is in vivo, mice. As to conditions: in words; liposomal formulations with BP1-148 in mice, FIGS. 31-33.
Text: Liposome formulations have been used to evaluate the adjuvant properties of various synthetic Lipid-A structures and the immune responses to a synthetic lipopeptide antigen BP-148, H2N-[…](Pal)G-OH (FIG. 34), a modified 25-amino-acid sequence derived from tumor-associated MUC1 mucin. The commercially available Lipid-A product, which is currently under clinical evaluation as an adjuvant for vaccine programs, was used for comparison. The natural Lipid-A product, purchased from AVANTI, contained a mixture of Lipid-A analogs extracted from Salmonella bacterial cell wall and is designated as Natural Lipid-A in this invention.
Thus, the liposomal formulations containing the synthetic lipopeptide antigen, BP1-148, and Lipid-A analogs 33, 48, 54, 58, 70, 77, 86, 94, 102, 104 or Natural Lipid-A, were used to immunize mice to measure their immune response in terms of T-cell blastogenesis and interferon-gamma (IFN-γ) production. The compounds were tested in three groups at different time and their preliminary results are shown separately in FIGS. 31-33. As the variations are attributed to different factors such as animal groups and experimental factors, the data from different groups will not be compared.
as §3

Entries after “also recorded” stand apart in the source; their conditions may differ.

`CCCCCCCCCCCCCCCC(=O)O[C@H](CCCCCCCCCCC)CC(=O)N[C@H]1C(O)O[C@H](CO[C@@H]2O[C@H](CO)[C@@H](OP(=O)(O)O)[C@H](OC(=O)C[C@@H](CCCCCCCCCCC)OC(=O)CCCCCCCCCCCCC)[C@H]2NC(=O)C[C@@H](CCCCCCCCCCC)OC(=O)CCCCCCCCCCC)[C@@H](O)[C@@H]1O` (stereo partly drawn) [Compound 48, 2-Deoxy-6-O-{2-deoxy-2-[(3R)-3-dodecanoyloxytetradecanamido]-4-O-phosphono-3-O-[(3R)-3-tetradecanoyloxytetradecanoyl]-β-D-glucopyranosyl}-2-[(3R)-3-hexadecanoyloxytetradecanamido]-α/β-D-glucopyranose]: the “T-cell-Proliferation (CPM)” value in the assay on T-cell (Table 1, first test group) is given as 14112 CPM; with T-cell (Table 2, second test group), 28149 CPM. For the same compound, in the assay with T-cell, the T-cell blastogenesis result is given as “significant T-cell blastogenesis”. Besides, the “Interferon-gamma (IFN-γ, pg/ml)” value stood at 2430 pg/mL in the assay on Interferon-gamma (IFN-γ) (Table 1, first test group) and 18261 pg/mL in the assay with Interferon-gamma (IFN-γ) (Table 2, second test group). For the same compound, the interferon-gamma production result with Interferon-gamma (IFN-γ) was “high levels of interferon-gamma”. In addition, the “adjuvant activity compared to Natural Lipid-A (Lipid-A preparation of bacterial origin)” value in assay [1] was “as effective”.
Turning to `CCCCCCCCCCCCCC(=O)O[C@H](CCCCCCCCCCC)CC(=O)N[C@H]1[C@H](OC[C@H]2OC(O)[C@H](NC(=O)C[C@@H](CCCCCCCCCCC)OC(=O)CCCCCCCCCCCCC)[C@@H](O)[C@@H]2O)O[C@H](CO)[C@@H](OP(=O)(O)O)[C@@H]1OC(=O)C[C@@H](CCCCCCCCCCC)OC(=O)CCCCCCCCCCCCC` (stereo partly drawn) [Compound 54, 2-Deoxy-6-O-{2-deoxy-4-O-phosphono-2-[(3R)-3-tetradecanoyloxytetradecanamido]-3-O-[(3R)-3-tetradecanoyloxytetradecanoyl]-β-D-glucopyranosyl}-2-[(3R)-3-tetradecanoyloxytetradecanamido]-α/β-D-glucopyranose], in the assay on T-cell (Table 2, second test group), the “T-cell-Proliferation (CPM)” value was 32976 CPM. The T-cell blastogenesis entry in the assay on T-cell is given as “significant T-cell blastogenesis”. The “Interferon-gamma (IFN-γ, pg/ml)” value in the assay on Interferon-gamma (IFN-γ) (Table 2, second test group) stood at 36166 pg/mL. In the assay on Interferon-gamma (IFN-γ), the interferon-gamma production entry is “high levels of interferon-gamma”. The “adjuvant activity compared to Natural Lipid-A (Lipid-A preparation of bacterial origin)” value in assay [1] is recorded as “as effective”.
As for `CCCCCCCCCCCCCC(=O)O[C@H](CCCCCCCCCCC)CC(=O)N[C@H]1[C@H](OC[C@H]2OC(O)[C@H](NC(=O)C[C@@H](CCCCCCCCCCC)OC(=O)CCCCCCCCCCCCC)[C@@H](OCCC)[C@@H]2O)O[C@H](CO)[C@@H](OP(=O)(O)O)[C@@H]1OC(=O)C[C@@H](CCCCCCCCCCC)OC(=O)CCCCCCCCCCCCC` (stereo partly drawn) [Compound 70, 2-Deoxy-6-O-{2-deoxy-2-[(3R)-3-tetradecanoyloxytetradecanamido]-4-O-phosphono-3-O-[(3R)-3-tetradecanoyloxytetradecanoyl]-β-D-glucopyranosyl}-3-O-propyl-2-[(3R)-3-tetradecanoyloxytetradecanamido]-α/β-D-glucopyranose], the “T-cell-Proliferation (CPM)” value in the assay on T-cell (Table 2, second test group) is given as 25034 CPM. In addition, the T-cell blastogenesis entry in the assay on T-cell is “significant T-cell blastogenesis”. The “Interferon-gamma (IFN-γ, pg/ml)” value with Interferon-gamma (IFN-γ) (Table 2, second test group) is 17321 pg/mL. The interferon-gamma production entry in the assay with Interferon-gamma (IFN-γ) is “high levels of interferon-gamma”. Besides, the “adjuvant activity compared to Natural Lipid-A (Lipid-A preparation of bacterial origin)” value in assay [1] is recorded as “as effective”.
As to `CCCCCCCCCCCCO[C@H](CCCCCCCCCCC)CC(=O)N[C@H]1[C@H](OC[C@H]2OC(O)[C@H](NC(=O)C[C@@H](CCCCCCCCCCC)OCCCCCCCCCCCC)[C@@H](OC(=O)C[C@H](O)CCCCCCCCCCC)[C@@H]2O)O[C@H](CO)[C@@H](OP(=O)(O)O)[C@@H]1OC(=O)C[C@@H](CCCCCCCCCCC)OCCCCCCCCCCCC` (stereo partly drawn) [Compound 94, 2-Deoxy-6-O-{2-deoxy-4-O-phosphono-2-[(3R)-3-dodecyloxytetradecanamido]-3-O-[(3R)-3-dodecyloxytetradecanoyl]-β-D-glucopyranosyl}-3-O-[(3R)-3-hydroxytetradecanoyl]-2-[(3R)-3-dodecyloxytetradecanamido]-α/β-D-glucopyranose], in the assay on T-cell (Table 3, third test group), the “T-cell-Proliferation (CPM)” value worked out at 10882 CPM. In addition, the T-cell blastogenesis result in the assay with T-cell was “significant T-cell blastogenesis”. Also, the “Interferon-gamma (IFN-γ, pg/ml)” value with Interferon-gamma (IFN-γ) (Table 3, third test group) was determined as 2150 pg/mL. In addition, the interferon-gamma production entry with Interferon-gamma (IFN-γ) is on record as “low”.
Regarding `CCCCCCCCCCCCO[C@H](CCCCCCCCCCC)CC(=O)N[C@H]1[C@H](OC[C@H]2OC(O)[C@H](NC(=O)C[C@@H](CCCCCCCCCCC)OC(=O)C[C@@H](CCCCCCCCCCC)OCCCCCCCCCCCC)[C@@H](O)[C@@H]2O)O[C@H](CO)[C@@H](OP(=O)(O)O)[C@@H]1OC(=O)C[C@@H](CCCCCCCCCCC)OCCCCCCCCCCCC` (stereo partly drawn) [Compound 102, 2-Deoxy-6-O-{2-deoxy-4-O-phosphono-2-[(3R)-3-dodecyloxytetradecanamido]-3-O-[(3R)-3-dodecyloxytetradecanoyl]-β-D-glucopyranosyl}-2-{(3R)-3-[(3R)-3-dodecyloxytetradecanoyloxy]-tetradecanamido}-α/β-D-glucopyranose], the “T-cell-Proliferation (CPM)” value in the assay on T-cell (Table 3, third test group) is 13389 CPM. Moreover, the T-cell blastogenesis entry in the assay on T-cell is listed as “significant T-cell blastogenesis”. In the assay with Interferon-gamma (IFN-γ) (Table 3, third test group), the “Interferon-gamma (IFN-γ, pg/ml)” value worked out at 10587 pg/mL. Further, in the assay on Interferon-gamma (IFN-γ), the interferon-gamma production entry was “high levels of interferon-gamma”. Moreover, the “adjuvant activity compared to Natural Lipid-A (Lipid-A preparation of bacterial origin)” value in assay [1] was “similar; also recorded: as effective”.
Turning to `CCCCCCCCCCCCO[C@H](CCCCCCCCCCC)CC(=O)O[C@H](CCCCCCCCCCC)CC(=O)N[C@H]1C(O)O[C@H](CO[C@@H]2O[C@H](CO)[C@@H](OP(=O)(O)O)[C@H](OC(=O)C[C@@H](CCCCCCCCCCC)OCCCCCCCCCCCC)[C@H]2NC(=O)C[C@H](O)CCCCCCCCCCC)[C@@H](O)[C@@H]1O` (stereo partly drawn) [Compound 104, 2-Deoxy-6-O-{2-deoxy-4-O-phosphono-2-[(3R)-3-hydroxytetradecanamido]-3-O-[(3R)-3-dodecyloxytetradecanoyl]-β-D-glucopyranosyl}-2-{(3R)-3-[(3R)-3-dodecyloxytetradecanoyloxy]-tetradecanamido}-α/β-D-glucopyranose], the “T-cell-Proliferation (CPM)” value in the assay on T-cell (Table 3, third test group) is given as 12635 CPM. Moreover, the T-cell blastogenesis result with T-cell is given as “significant T-cell blastogenesis”. In addition, the “Interferon-gamma (IFN-γ, pg/ml)” value with Interferon-gamma (IFN-γ) (Table 3, third test group) was determined as 14669 pg/mL. For the same compound, in the assay with Interferon-gamma (IFN-γ), the interferon-gamma production entry is “high levels of interferon-gamma”. In addition, the “adjuvant activity compared to Natural Lipid-A (Lipid-A preparation of bacterial origin)” value in assay [1] is “similar; also recorded: as effective”.
